Laboratory results from patent US20210045385A1, “PYRIDAZINONE-SUBSTITUTED KETOXIMES AS HERBICIDES” (FMC Corporation, priority 2018, published 2021).

Tests used:
Type in all cases: in vivo
[1] = tested on: barnyardgrass (Echinochloa crus-galli); experiment: Test D flooded paddy test, visual plant response rating; details: 250 g ai/ha, scale 0 to 100 (0 no effect, 100 complete control), 13 to 15 d
In short: (§1)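 Greenhouse paddy assay scored on a 0–100 visual scale after 13 to 15 d, where 100 means complete control and a dash marks no result; dosing was into 3 cm floodwater over 2-leaf plants.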

[2] = tested on: rice (Oryza sativa); experiment: as above; details: 250 g ai/ha, scale 0 to 100 (0 no effect, 100 complete control), 13 to 15 d
In short: as §1

[3] = tested on: sedge umbrella (small-flower umbrella sedge, Cyperus difformis); experiment: as above; details: 250 g ai/ha, scale 0 to 100 (0 no effect, 100 complete control), 13 to 15 d
In short: as §1

[4] = tested on: duck salad (Heteranthera limosa); experiment: as above; details: 250 g ai/ha, scale 0 to 100 (0 no effect, 100 complete control), 13 to 15 d
In short: as §1

[5] = tested on: barnyardgrass (Echinochloa crus-galli); experiment: Test C preemergence, visual plant response rating
In short: (§2)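 Seeds sown in a loam–sand blend got a directed preemergence soil spray; postemergence plants (2–10 cm, one- to two-leaf stage) were sprayed with compound in a non-phytotoxic solvent plus surfactant. Injury was scored visually against untreated controls after about 10 d in a greenhouse on a 0–100 scale (100 = complete control).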

[6] = tested on: ragweed (common ragweed, Ambrosia artemisiifolia); experiment: Test C preemergence, visual plant response rating
In short: as §2

[7] = tested on: pigweed (Amaranthus retroflexus); experiment: Test C preemergence, visual plant response rating
In short: as §2

[8] = tested on: Italian ryegrass (Lolium mutiflorum); experiment: Test C preemergence, visual plant response rating
In short: as §2

[9] = tested on: foxtail, giant (giant foxtail, Setaria faberi); experiment: Test C preemergence, visual plant response rating
In short: as §2

[10] = tested on: kochia (Bassia scoparia); experiment: Test C preemergence, visual plant response rating
In short: as §2

[11] = tested on: corn (Zea mays); experiment: Test C postemergence, visual plant response rating
In short: as §2

[12] = tested on: barnyardgrass (Echinochloa crus-galli); experiment: Test C postemergence, visual plant response rating
In short: as §2

[13] = tested on: ragweed (common ragweed, Ambrosia artemisiifolia); experiment: Test C postemergence, visual plant response rating
In short: as §2

[14] = tested on: pigweed (Amaranthus retroflexus); experiment: Test C postemergence, visual plant response rating
In short: as §2

[15] = tested on: galium (catchweed bedstraw, Galium aparine); experiment: Test C postemergence, visual plant response rating
In short: as §2

[16] = tested on: blackgrass (Alopecurus myosuroides); experiment: Test C postemergence, visual plant response rating
In short: as §2

[17] = tested on: Italian ryegrass (Lolium mutiflorum); experiment: Test C postemergence, visual plant response rating
In short: as §2

[18] = tested on: foxtail, giant (giant foxtail, Setaria faberi); experiment: Test C postemergence, visual plant response rating
In short: as §2

[19] = tested on: kochia (Bassia scoparia); experiment: Test C postemergence, visual plant response rating
In short: as §2

[20] = tested on: wheat (Triticum aestivum); experiment: Test C postemergence, visual plant response rating
In short: as §2

[21] = Test C, 31 g ai/ha, 0 is no effect, 100 is complete control
[22] = Test C, postemergence, 125 g ai/ha

SMILES	Plant response rating, Barnyardgrass (Flood) [1]	Plant response rating, Rice (Flood) [2]	Plant response rating, Sedge, Umbrella (Flood) [3]	Plant response rating, Ducksalad (Flood) [4]	Barnyardgrass plant response rating (0 to 100 scale) ([5]; 125 g ai/ha)	Barnyardgrass plant response rating (0 to 100 scale) [5, 21]	Ragweed plant response rating (0 to 100 scale) ([6]; 125 g ai/ha)	Ragweed plant response rating (0 to 100 scale) [6, 21]	Pigweed plant response rating (0 to 100 scale) ([7]; 125 g ai/ha)	Pigweed plant response rating (0 to 100 scale) [7, 21]	Ryegrass, Italian plant response rating (0 to 100 scale) ([8]; 125 g ai/ha)	Ryegrass, Italian plant response rating (0 to 100 scale) [8, 21]	Foxtail, Giant plant response rating (0 to 100 scale) ([9]; 125 g ai/ha)	Foxtail, Giant plant response rating (0 to 100 scale) [9, 21]	Kochia plant response rating (0 to 100 scale) ([10]; 125 g ai/ha)	Kochia plant response rating (0 to 100 scale) [10, 21]	Corn plant response rating (0 to 100 scale) ([11]; Postemergence, 31 g ai/ha)	Corn plant response rating (0 to 100 scale) [11, 22]	Barnyardgrass plant response rating (0 to 100 scale) ([12]; Postemergence, 31 g ai/ha)	Barnyardgrass plant response rating (0 to 100 scale) [12, 22]	further results
CON=C(c1ccc(F)c(Br)c1)c1c(O)c(C)nn(C)c1=O [Compound 177]	0	0	0	0	60	40	20	0	10	0	10	0	10	0	0	0	0	0	0	20	Ragweed plant response rating (0 to 100 scale) ([13]; Postemergence, 31 g ai/ha): 20; Ragweed plant response rating (0 to 100 scale) [13, 22]: 60; Pigweed plant response rating (0 to 100 scale) ([14]; Postemergence, 31 g ai/ha): 40; Pigweed plant response rating (0 to 100 scale) [14, 22]: 60; Galium plant response rating (0 to 100 scale) ([15]; Postemergence, 31 g ai/ha): 40; Galium plant response rating (0 to 100 scale) [15, 22]: 80; Blackgrass plant response rating (0 to 100 scale) ([16]; Postemergence, 31 g ai/ha): 0; Blackgrass plant response rating (0 to 100 scale) [16, 22]: 0; Ryegrass, Italian plant response rating (0 to 100 scale) ([17]; Postemergence, 31 g ai/ha): 30; Ryegrass, Italian plant response rating (0 to 100 scale) [17, 22]: 60; Foxtail, Giant plant response rating (0 to 100 scale) ([18]; Postemergence, 31 g ai/ha): 10; Foxtail, Giant plant response rating (0 to 100 scale) [18, 22]: 10; Kochia plant response rating (0 to 100 scale) ([19]; Postemergence, 31 g ai/ha): 10; Kochia plant response rating (0 to 100 scale) [19, 22]: 70; Wheat plant response rating (0 to 100 scale) ([20]; Postemergence, 31 g ai/ha): 0; Wheat plant response rating (0 to 100 scale) [20, 22]: 0
C#CCON=C(c1ccc(Cl)c(Cl)c1)c1c(O)c(C)nn(C)c1=O [Compound 178]	0	0	0	0	50	30	40	0	70	20	70	0	60	10	0	0	0	10	20	50	Ragweed plant response rating (0 to 100 scale) ([13]; Postemergence, 31 g ai/ha): 0; Ragweed plant response rating (0 to 100 scale) [13, 22]: 40; Pigweed plant response rating (0 to 100 scale) ([14]; Postemergence, 31 g ai/ha): 20; Pigweed plant response rating (0 to 100 scale) [14, 22]: 40; Galium plant response rating (0 to 100 scale) ([15]; Postemergence, 31 g ai/ha): 40; Galium plant response rating (0 to 100 scale) [15, 22]: 80; Blackgrass plant response rating (0 to 100 scale) ([16]; Postemergence, 31 g ai/ha): 0; Blackgrass plant response rating (0 to 100 scale) [16, 22]: 30; Ryegrass, Italian plant response rating (0 to 100 scale) ([17]; Postemergence, 31 g ai/ha): 20; Ryegrass, Italian plant response rating (0 to 100 scale) [17, 22]: 90; Foxtail, Giant plant response rating (0 to 100 scale) ([18]; Postemergence, 31 g ai/ha): 10; Foxtail, Giant plant response rating (0 to 100 scale) [18, 22]: 30; Kochia plant response rating (0 to 100 scale) ([19]; Postemergence, 31 g ai/ha): 40; Kochia plant response rating (0 to 100 scale) [19, 22]: 70; Wheat plant response rating (0 to 100 scale) ([20]; Postemergence, 31 g ai/ha): 0; Wheat plant response rating (0 to 100 scale) [20, 22]: 80
